These results are taken from patent US12180193B2, “Accelerating fibrosarcoma protein degrading compounds and associated methods of use” (Arvinas Operations, Inc., priority 2020, dated 2024).

For one experiment, the target named is T1, BRAF V600E (Homo sapiens, UniProt P15056, V600E).
T1 construct: expressed in transfected cells
Description: Cellular assay of target protein degradation, T-Rex 293 cells stably transfected with HA-BRAF_V600E (HA immunofluorescence, high content imaging). The following applies: T-Rex 293 HA-BRAF V600E; for DC50: half maximal degradation, read-out: BRaf V600E DC50; for Dmax: maximum degradation observed. The format is cell-based. In outline: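 HA immunofluorescence on fixed cells, imaged by high-content reader, measured loss of HA-BRAF V600E in stably transfected T-Rex 293 cells induced with 1 ng/mL doxycycline. Compounds were applied for 24 h at 37 °C (final 0.1 nM–1 μM, 0.1% DMSO); DC50 and Dmax (% of control) were reported.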

The target in the next experiment is T2, BRAF G466V (Homo sapiens, UniProt P15056, G466V).
T2 construct: expressed in transfected cells
The experiment in a line: Cellular assay of target protein degradation, T-Rex 293 cells stably transfected with HA-BRAF G466V (HA immunofluorescence, high content imaging). The format is cell-based. The following applies: T-Rex 293 HA-BRAF G466V; for DC50: half maximal degradation, read-out: BRaf G466V DC50; for Dmax: maximum degradation observed. In short, it runs like this:
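HA-BRAF G466V levels were read by HA immunofluorescence and high-content imaging after 24 h compound exposure (final 30 nM–3 pM, 0.1% DMSO, 37 °C). Expression was induced with 0.75 ng/mL doxycycline. Outputs: half-maximal degradation concentration (DC50) and maximal degradation (Dmax) relative to control.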

T2 sequence (P15056 whole entry G466V): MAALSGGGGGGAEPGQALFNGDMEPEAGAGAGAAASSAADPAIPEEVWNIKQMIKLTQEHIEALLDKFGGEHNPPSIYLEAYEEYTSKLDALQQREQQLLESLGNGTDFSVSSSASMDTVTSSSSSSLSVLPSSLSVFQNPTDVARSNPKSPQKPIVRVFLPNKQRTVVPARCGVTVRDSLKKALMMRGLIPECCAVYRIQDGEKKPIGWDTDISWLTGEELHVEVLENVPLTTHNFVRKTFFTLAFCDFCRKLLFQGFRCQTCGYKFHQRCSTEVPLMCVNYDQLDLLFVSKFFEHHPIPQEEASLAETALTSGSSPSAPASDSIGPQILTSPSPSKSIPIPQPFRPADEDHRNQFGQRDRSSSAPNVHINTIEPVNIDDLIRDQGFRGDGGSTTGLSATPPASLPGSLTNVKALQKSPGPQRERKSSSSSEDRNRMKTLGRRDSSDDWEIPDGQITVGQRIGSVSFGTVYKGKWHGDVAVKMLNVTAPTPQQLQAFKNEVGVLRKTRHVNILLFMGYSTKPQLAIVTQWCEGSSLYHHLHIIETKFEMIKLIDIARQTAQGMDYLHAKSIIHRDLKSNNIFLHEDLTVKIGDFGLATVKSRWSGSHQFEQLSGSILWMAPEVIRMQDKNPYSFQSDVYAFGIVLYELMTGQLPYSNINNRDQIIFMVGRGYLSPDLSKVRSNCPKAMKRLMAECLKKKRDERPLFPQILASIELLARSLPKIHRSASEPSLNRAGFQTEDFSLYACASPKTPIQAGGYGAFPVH
T1 sequence (P15056 whole entry V600E): as the sequence (P15056 whole entry G466V) above, with V466G, V600E counted along it

Consider `O=C1CC[C@H](NC(=O)c2ccc(N3CC4(CN(CC5CCN(c6ccc(-c7cnc8[nH]cc(C(=O)c9c(F)ccc(NS(=O)(=O)N%10CCC(F)(F)C%10)c9F)c8c7)cc6)CC5)C4)C3)cc2F)C(=O)N1` [Compound 351, 4-{6-[(1-{4-[3-(3-{[(3,3-difluoropyrrolidin-1-yl)sulfonyl]amino}-2,6-difluorobenzoyl)-1H-pyrrolo[2,3-b]pyridin-5-yl]phenyl}piperidin-4-yl)methyl}-2,6-diazaspiro[3.3]heptan-2-yl}-N-[(3S)-2,6-dioxopiperidin-3-yl]-2-fluorobenzamide], for which the DC50 (usually the concentration at which degradation of the target reaches its halfway point) at BRAF V600E was 5 to 50 nM; on BRAF G466V, 1 to 10 nM. The maximal degradation (Dmax) at BRAF V600E and on BRAF G466V was 35 to 70% each time.
Regarding `COc1cc(N2CCC(CN3CC4(C3)CN(c3ccc(-c5cnc6[nH]cc(C(=O)c7c(F)ccc(NS(=O)(=O)N8CC[C@@H](F)C8)c7F)c6c5)cc3)C4)CC2)ccc1C(=O)N[C@H]1CCC(=O)NC1=O` [Compound 352, 4-(4-{[6-(4-{3-[2,6-difluoro-3-({[(3R)-3-fluoropyrrolidin-1-yl]sulfonyl}amino)benzoyl]-1H-pyrrolo[2,3-b]pyridin-5-yl}phenyl)-2,6-diazaspiro[3.3]heptan-2-yl]methyl}piperidin-1-yl)-N-[(3S)-2,6-dioxopiperidin-3-yl]-2-methoxybenzamide], on BRAF V600E, the DC50 was 5 to 50 nM and the greatest degradation seen (Dmax) (in general, the greatest extent of degradation seen) lay in the range of 35 to 70%. Moreover, on BRAF G466V, the DC50 lay in the range of 1 to 10 nM and the Dmax is above 70%.
Turning to `O=C1CC[C@H](NC(=O)c2ccc(N3CCC(CN4CC5(C4)CN(c4ccc(-c6cnc7[nH]cc(C(=O)c8c(F)ccc(NS(=O)(=O)N9CC[C@@H](F)C9)c8F)c7c6)cc4)C5)CC3)cn2)C(=O)N1` [Compound 353, 5-(4-{[6-(4-{3-[2,6-difluoro-3-({[(3R)-3-fluoropyrrolidin-1-yl]sulfonyl}amino)benzoyl]-1H-pyrrolo[2,3-b]pyridin-5-yl}phenyl)-2,6-diazaspiro[3.3]heptan-2-yl]methyl}piperidin-1-yl)-N-[(3S)-2,6-dioxopiperidin-3-yl]pyridine-2-carboxamide], the DC50 on BRAF V600E lay in the range of 5 to 50 nM; at BRAF G466V it was 1 to 10 nM. For the same compound, the Dmax on BRAF V600E and on BRAF G466V was 35 to 70% throughout.
As for `O=C1CCC(NC(=O)c2ccc(N3CCC(CN4CC5(C4)CN(c4ccc(-c6cnc7[nH]cc(C(=O)c8c(F)ccc(NS(=O)(=O)N9CC[C@@H](F)C9)c8F)c7c6)cc4)C5)CC3)cn2)C(=O)N1` (stereo partly drawn) [Compound 354, 5-(4-{[6-(4-{3-[2,6-difluoro-3-({[(3R)-3-fluoropyrrolidin-1-yl]sulfonyl}amino)benzoyl]-1H-pyrrolo[2,3-b]pyridin-5-yl}phenyl)-2,6-diazaspiro[3.3]heptan-2-yl]methyl}piperidin-1-yl)-N-(2,6-dioxopiperidin-3-yl)pyridine-2-carboxamide], the DC50 on BRAF V600E was in the range of 5 to 50 nM; on BRAF G466V it was 1 to 10 nM. Besides, the greatest degradation seen (Dmax) at BRAF V600E and on BRAF G466V was below 35% each time.
Turning to `O=C1CC[C@H](NC(=O)c2ccc(CCCN3CC4(C3)CN(c3ccc(-c5cnc6[nH]cc(C(=O)c7c(F)ccc(NS(=O)(=O)N8CC[C@@H](F)C8)c7F)c6c5)cc3)C4)cc2F)C(=O)N1` [Compound 355, 4-{3-[6-(4-{3-[2,6-difluoro-3-({[(3R)-3-fluoropyrrolidin-1-yl]sulfonyl}amino)benzoyl]-1H-pyrrolo[2,3-b]pyridin-5-yl}phenyl)-2,6-diazaspiro[3.3]heptan-2-yl]propyl}-N-[(3S)-2,6-dioxopiperidin-3-yl]-2-fluorobenzamide], on BRAF V600E, the half-maximal degradation concentration (DC50) was in the range of 50 to 500 nM and the Dmax is 35 to 70%. For the same compound, the half-maximal degradation concentration (DC50) on BRAF G466V was above 30 nM.
For `O=C1CCC(NC(=O)c2ccc(CCCN3CC4(C3)CN(c3ccc(-c5cnc6[nH]cc(C(=O)c7c(F)ccc(NS(=O)(=O)N8CC[C@@H](F)C8)c7F)c6c5)cc3)C4)cc2F)C(=O)N1` (stereo partly drawn) [Compound 356, 4-{3-[6-(4-{3-[2,6-difluoro-3-({[(3R)-3-fluoropyrrolidin-1-yl]sulfonyl}amino)benzoyl]-1H-pyrrolo[2,3-b]pyridin-5-yl}phenyl)-2,6-diazaspiro[3.3]heptan-2-yl]propyl}-N-(2,6-dioxopiperidin-3-yl)-2-fluorobenzamide], the DC50 was above 500 nM on BRAF V600E and above 30 nM on BRAF G466V.
As to `COc1cc(N2CCC(CN3CCN(c4ccc(-c5cnc6[nH]cc(C(=O)c7c(F)ccc(NS(=O)(=O)N8CC[C@@H](F)C8)c7F)c6c5)cc4)CC3)CC2)ccc1C(=O)N[C@H]1CCC(=O)NC1=O` [Compound 357, 4-(4-{[4-(4-{3-[2,6-difluoro-3-({[(3R)-3-fluoropyrrolidin-1-yl]sulfonyl}amino)benzoyl]-1H-pyrrolo[2,3-b]pyridin-5-yl}phenyl)piperazin-1-yl]methyl}piperidin-1-yl)-N-[(3S)-2,6-dioxopiperidin-3-yl]-2-methoxybenzamide], at BRAF V600E, the DC50 is 5 to 50 nM and the Dmax was in the range of 35 to 70%. Further, at BRAF G466V, the 50% degradation concentration (DC50) was 1 to 10 nM and the Dmax was above 70%.
Consider `COc1cc(N2CCC(CN3CCN(c4ccc(-c5cnc6[nH]cc(C(=O)c7c(F)ccc(NS(=O)(=O)N8CC[C@@H](F)C8)c7F)c6c5)cc4)CC3)CC2)ccc1C(=O)NC1CCC(=O)NC1=O` (stereo partly drawn) [Compound 358, 4-(4-{[4-(4-{3-[2,6-difluoro-3-({[(3R)-3-fluoropyrrolidin-1-yl]sulfonyl}amino)benzoyl]-1H-pyrrolo[2,3-b]pyridin-5-yl}phenyl)piperazin-1-yl]methyl}piperidin-1-yl)-N-(2,6-dioxopiperidin-3-yl)-2-methoxybenzamide], for which, on BRAF V600E, the DC50 fell in the range of 5 to 50 nM and the Dmax lay in the range of 35 to 70%. Also, on BRAF G466V, the DC50 lay in the range of 1 to 10 nM and the maximal degradation (Dmax) is above 70%.
On to `COc1cc(N2CCN(CC3CCN(c4ccc(-c5cnc6[nH]cc(C(=O)c7c(F)ccc(NS(=O)(=O)N8CC[C@@H](F)C8)c7F)c6c5)cc4)CC3)CC2)ccc1C(=O)N[C@H]1CCC(=O)NC1=O` [Compound 359, 4-(4-{[1-(4-{3-[2,6-difluoro-3-({[(3R)-3-fluoropyrrolidin-1-yl]sulfonyl}amino)benzoyl]-1H-pyrrolo[2,3-b]pyridin-5-yl}phenyl)piperidin-4-yl]methyl}piperazin-1-yl)-N-[(3S)-2,6-dioxopiperidin-3-yl]-2-methoxybenzamide], for which, on BRAF V600E, the half-maximal degradation concentration (DC50) fell in the range of 5 to 50 nM and the greatest degradation seen (Dmax) lay within 35 to 70%. Moreover, at BRAF G466V, the 50% degradation concentration (DC50) is 1 to 10 nM and the Dmax was above 70%.
Take `COc1cc(N2CCN(CC3CCN(c4ccc(-c5cnc6[nH]cc(C(=O)c7c(F)ccc(NS(=O)(=O)N8CC[C@@H](F)C8)c7F)c6c5)cc4)CC3)CC2)ccc1C(=O)NC1CCC(=O)NC1=O` (stereo partly drawn) [Compound 360, 4-(4-{[1-(4-{3-[2,6-difluoro-3-({[(3R)-3-fluoropyrrolidin-1-yl]sulfonyl}amino)benzoyl]-1H-pyrrolo[2,3-b]pyridin-5-yl}phenyl)piperidin-4-yl]methyl}piperazin-1-yl)-N-(2,6-dioxopiperidin-3-yl)-2-methoxybenzamide]: on BRAF V600E, the DC50 was below 5 nM and the greatest degradation seen (Dmax) was below 35%. At BRAF G466V, the DC50 lay within 1 to 10 nM and the greatest degradation seen (Dmax) was above 70%.
Regarding `COc1cc(N2CC3(CN(CCc4ccc(-c5cnc6[nH]cc(C(=O)c7c(F)ccc(NS(=O)(=O)N8CC[C@@H](F)C8)c7F)c6c5)cc4)C3)C2)ccc1C(=O)N[C@H]1CCC(=O)NC1=O` [Compound 361, 4-{6-[2-(4-{3-[2,6-difluoro-3-({[(3R)-3-fluoropyrrolidin-1-yl]sulfonyl}amino)benzoyl]-1H-pyrrolo[2,3-b]pyridin-5-yl}phenyl)ethyl]-2,6-diazaspiro[3.3]heptan-2-yl}-N-[(3S)-2,6-dioxopiperidin-3-yl]-2-methoxybenzamide], on BRAF V600E, the DC50 lay in the range of 5 to 50 nM and the Dmax is 35 to 70%. On BRAF G466V, the 50% degradation concentration (DC50) lay in the range of 1 to 10 nM and the Dmax is above 70%.
For `COc1cc(N2CC3(CN(CCc4ccc(-c5cnc6[nH]cc(C(=O)c7c(F)ccc(NS(=O)(=O)N8CC[C@@H](F)C8)c7F)c6c5)cc4)C3)C2)ccc1C(=O)NC1CCC(=O)NC1=O` (stereo partly drawn) [Compound 362, 4-{6-[2-(4-{3-[2,6-difluoro-3-({[(3R)-3-fluoropyrrolidin-1-yl]sulfonyl}amino)benzoyl]-1H-pyrrolo[2,3-b]pyridin-5-yl}phenyl)ethyl]-2,6-diazaspiro[3.3]heptan-2-yl}-N-(2,6-dioxopiperidin-3-yl)-2-methoxybenzamide] the same measures were 5 to 50 nM, 35 to 70%, 1 to 10 nM and above 70%.
In the case of `Nc1ccc(F)c(C(=O)c2c[nH]c3ncc(-c4ccc(N5CCC(CN6CC7(C6)CN(c6ccc(C(=O)N[C@H]8CCC(=O)NC8=O)c(F)c6)C7)CC5)cc4)cc23)c1F` [Compound 363, 4-{6-[(1-{4-[3-(3-amino-2,6-difluorobenzoyl)-1H-pyrrolo[2,3-b]pyridin-5-yl]phenyl}piperidin-4-yl)methyl]-2,6-diazaspiro[3.3]heptan-2-yl}-N-[(3S)-2,6-dioxopiperidin-3-yl]-2-fluorobenzamide], the half-maximal degradation concentration (DC50) at BRAF V600E is above 500 nM; on BRAF G466V, above 30 nM.
